Assay [1] relates to Candida albicans. The assay can be described thus: Inhibition of Cch1 in Candida albicans isolate 10 assessed as potentiation of fluconazole-induced antifungal activity by measuring fractional inhibitory concentration index after 24 hrs by checkerboard assay.
Assay [2] deals with Candida albicans. In words: Inhibition of Cch1 in Candida albicans isolate 16 assessed as potentiation of fluconazole-induced antifungal activity by measuring fractional inhibitory concentration index after 24 hrs by checkerboard assay.
Assay [3] deals with Candida albicans. The assay can be described thus: Antifungal activity against Candida albicans. In kind it is functional.
A short description of assay [4]: Inhibition of Aspergillus fumigatus AGM1.
The test system of assay [5] is Kluyveromyces marxianus. In words: Antifungal activity against Candida kefyr. In kind it is functional.
Assay [6] has as its system Aspergillus fumigatus. The assay can be described thus: Antifungal activity against Aspergillus fumigatus IFM 40808 after 48 hrs by broth-microdilution method. The settings on record: IFM 40808, 48 h. The assay is classed as functional.
The nature of assay [7]: Inhibition of Aspergillus fumigatus KU80UpyrG- NMT using [3H]-MCoA and CAP5.5 as substrate after 20 mins by SPA assay.
The test system of assay [8] is Cryptococcus neoformans. In words: Antifungal activity against Cryptococcus neoformans H99 serotype A after 72 hrs by microdilution method. The assay is classed as functional, Cryptococcus neoformans var. grubii H99. A general note: In broth dilution the organism is exposed to a series of concentrations in liquid medium.
Assay [9] relates to Aspergillus fumigatus. In words: Antifungal activity against Aspergillus fumigatus after 24 hrs. In kind it is functional.
The test system of assay [10] is Candida albicans. In words: Antifungal activity against Candida albicans after 24 hrs. In kind it is functional.
Assay [11] concerns Cryptococcus neoformans. The assay can be described thus: Antifungal activity against Cryptococcus neoformans after 24 hrs. The assay is classed as functional.
For assay [12], the system named is Saccharomyces cerevisiae. In words: Inhibition of Saccharomyces cerevisiae AHAS.
Assay [13] deals with Candida albicans. The assay can be described thus: Antifungal activity against Candida albicans ATCC 10231 after 24 hrs by CLSI protocol based method. The assay is classed as functional. The following applies: ATCC 10231, 24 h.
The test system of assay [14] is Candida albicans. In words: Antifungal activity against fluconazole-resistant Candida albicans clinical isolate 412 planktonic cells after 48 hrs by broth microdilution assay. The assay is classed as functional. The following applies: isolate 412, 48 h.
Assay [15] relates to Candida albicans. The assay can be described thus: Antifungal activity against fluconazole-resistant Candida albicans clinical isolate 2307 planktonic cells after 48 hrs by broth microdilution assay. The assay is classed as functional. The settings on record: isolate 2307, 48 h.
Assay [16] has as its system Candida albicans. In words: Antifungal activity against fluconazole-resistant Candida albicans clinical isolate 4380 planktonic cells after 48 hrs by broth microdilution assay. The following applies: isolate 4380, 48 h. The assay is classed as functional.
Assay [17] deals with Candida albicans. The assay can be described thus: Antifungal activity against fluconazole-resistant Candida albicans clinical isolate 2440 planktonic cells after 48 hrs by broth microdilution assay. The settings on record: isolate 2440, 48 h. The assay is classed as functional.
Assay [18] relates to Candida albicans. The assay can be described thus: Antibiofilm activity against Candida albicans SC5314 assessed as inhibition of mature biofilm formation at 8 to 32 ug/ml after 24 hrs by XTT reduction assay. The assay is classed as functional.
Assay [19] relates to Candida albicans. The assay can be described thus: Antibiofilm activity against Candida albicans SC5314 assessed as inhibition of biofilm formation at 2 to 4 ug/ml after 24 hrs by XTT reduction assay. The assay is classed as functional. In general terms: Tetrazolium assays rely on reduction of a dye to a coloured formazan, in cell work by metabolically active cells.
Assay [20] deals with Candida albicans. The assay can be described thus: Antifungal activity against fluconazole-resistant Candida albicans clinical isolate 4639 planktonic cells after 48 hrs by broth microdilution assay. The assay is classed as functional. The following applies: isolate 4639, 48 h.
Assay [21] concerns Candida albicans. The assay can be described thus: Antifungal activity against fluconazole-resistant Candida albicans clinical isolate 6191 planktonic cells after 48 hrs by broth microdilution assay. The assay is classed as functional. The following applies: isolate 6191, 48 h.
In assay [22] the test system is Candida albicans. In words: Antifungal activity against fluconazole-resistant Candida albicans clinical isolate 4617 planktonic cells after 48 hrs by broth microdilution assay. The assay is classed as functional. The settings on record: isolate 4617, 48 h.
Assay [23] has as its system Candida albicans. In words: Antifungal activity against fluconazole-resistant Candida albicans clinical isolate 3731 planktonic cells after 48 hrs by broth microdilution assay. In kind it is functional. The following applies: isolate 3731, 48 h.
Assay [24] concerns Candida albicans. In words: Antifungal activity against fluconazole-resistant Candida albicans clinical isolate 5106 planktonic cells after 48 hrs by broth microdilution assay. The assay is classed as functional. The settings on record: isolate 5106, 48 h.
The test system of assay [25] is Candida albicans. The assay can be described thus: Antifungal activity against fluconazole-resistant Candida albicans clinical isolate 3034 planktonic cells after 48 hrs by broth microdilution assay. The assay is classed as functional. The following applies: isolate 3034, 48 h.
The test system of assay [26] is Candida albicans. In words: Antifungal activity against fluconazole-resistant Candida albicans SC5314 planktonic cells after 48 hrs by broth microdilution assay. In kind it is functional. The following applies: SC5314, 48 h.
For assay [27], the system named is Candida albicans. The assay can be described thus: Antifungal activity against fluconazole-resistant Candida albicans clinical isolate 1691 planktonic cells after 48 hrs by broth microdilution assay. In kind it is functional. The settings on record: isolate 1691, 48 h.
In assay [28] the test system is Candida albicans. In words: Antifungal activity against fluconazole-resistant Candida albicans clinical isolate 6482 planktonic cells after 48 hrs by broth microdilution assay. The following applies: isolate 6482, 48 h. The assay is classed as functional.

Values after ≈ are worked out from the molar mass of the structure shown.

As to `COC(=O)C1=C(C)NC(C)=C(C(=O)OC)C1c1ccccc1[N+](=O)[O-]`, the fractional inhibitory concentration index (FICI) in assay [1] and in assay [2] was 0.017 to 0.035 in each case.
Take `CCOC(=O)C1=C(COCCN)NC(C)=C(C(=O)OC)C1c1ccccc1Cl` (configuration not stated): the fractional inhibitory concentration index (FICI) in [1] and in assay [2] was 0.017 to 0.035 in each case.
Turning to `CC[C@@H](C)[C@@H](O)[C@H](C)C(=O)[C@H](C)/C=C(\C)C[C@H](C)C1OC(=O)[C@H]1C` (some centres not stated), the MIC (in general, the lowest concentration found to suppress growth) in assay [3] amounted to 64 µg/mL (≈ 189 µM).
With `Nc1ccc(O)c2c1C(=O)c1c(O)ccc(N)c1C2=O`, in [4], the affinity, expressed as Ki, was 300 µM.
Regarding `CCOC(=O)c1ccccc1S(=O)(=O)NC(=O)Nc1nc(Br)cc(OC)n1`, the MIC90 (as a rule, the lowest concentration that inhibits either 90% of growth or 90% of the strains tested, depending on the study) in assay [3] turned out to be 0.72 µg/mL (≈ 1.57 µM).
Take `N[C@@H](CC(=O)CO)C(=O)O`: the MIC in assay [5] was in the range of 6.25 to 12.5 µg/mL (≈ 42.5 to 85 µM).
On to `Cc1c(NS(=O)(=O)c2c(Cl)cc(-c3ccnc(N4CCNCC4)c3)cc2Cl)c(CC(C)C)nn1C` [ZELENIRSTAT], for which the MIC in [6] is 925 µM (≈ 497 µg/mL). The concentration for half-maximal inhibition (IC50) (as a rule, the concentration that gives 50% inhibition) in [7] is 12 nM.
In turn, `C=CC[C@@H]1/C=C(\C)C[C@H](C)C[C@H](OC)[C@H]2O[C@@](O)(C(=O)C(=O)N3CCCC[C@H]3C(=O)O[C@H](/C(C)=C/[C@@H]3CC[C@@H](O)[C@H](OC)C3)[C@H](C)[C@@H](O)CC1=O)[C@H](C)C[C@@H]2OC` [TACROLIMUS ANHYDROUS] returned an MIC in [8] of 0.01 µg/mL (≈ 0.0124 µM).
On to `C/C=C/C[C@@H](C)[C@@H](O)[C@H]1C(=O)N[C@@H](CC)C(=O)N(C)CC(=O)N(C)[C@@H](CC(C)C)C(=O)N[C@@H](C(C)C)C(=O)N(C)[C@@H](CC(C)C)C(=O)N[C@@H](C)C(=O)N[C@H](C)C(=O)N(C)[C@@H](CC(C)C)C(=O)N(C)[C@@H](CC(C)C)C(=O)N(C)[C@@H](C(C)C)C(=O)N1C` [CYCLOSPORINE], for which the MIC in assay [8] is 0.39 µg/mL (≈ 0.324 µM).
As to `CCc1cccc(C)c1NS(=O)(=O)c1nc2nc(C)cc(C3CC3)n2n1`, the MIC50 – broadly, an inhibitory concentration at the 50% level, which refers to growth in some studies and to a panel of isolates in others – is 4 µg/mL (≈ 10.8 µM) in assay [9], 1 µg/mL (≈ 2.69 µM) in assay [10] and 4 µg/mL (≈ 10.8 µM) in assay [11]. For the same molecule, the IC30 (in general, the concentration needed for an effect of 30%) in assay [12] was found to be 4.2 µM.
On to `O=C(O)C[C@]1(C(=O)O)OC1C(=O)O` (some centres not stated), for which the MIC in [13] is > 512 µg/mL.
Regarding `CCCCCCCCCCCCCCCCOP(=O)([O-])OCC[N+](C)(C)C` [MILTEFOSINE], the MIC in [14], in [15], in [16], in [17], in [20] and in [21] was 0.5 to 2 µg/mL (≈ 1.23 to 4.91 µM) each time. For the same molecule, the MIC in [22], in [23], in [24], in assay [25], in assay [26] and in assay [27] was 0.5 to 2 µg/mL (≈ 1.23 to 4.91 µM) throughout. For the same molecule, the MIC in assay [28] lay in the range of 0.5 to 2 µg/mL (≈ 1.23 to 4.91 µM). The “inhibition (INH)” value was >90% in [18] and 90% in assay [19].

The values are drawn from ChEMBL document CHEMBL4190370, “Emerging New Targets for the Treatment of Resistant Fungal Infections” (J Med Chem, 2018).
